Laboratory results reported in patent US20040161781A1, “Compositions and methods for identifying thymidylate synthase modulators” (priority 2002, published 2004).
Where two headings read alike, the source gives them in different places.

Key:
[1] = system: thymidylate synthase (TS); test: Down-regulation of TS in H630 cells treated with acyl-homoserine lactones (Western blotting); type: cell-based, human; conditions: overnight (approximately 16 hours)
Excerpt: FIG. 6. A representation of the ability of acyl homoserine lactones to down-regulate TS in H630 cells.
The signaling molecules produced by the rTS signaling pathway cause a decrease in the amount of TS found in cells. These signaling molecules can simulate the effects of the compound 3-oxo-hexanoyl homoserine lactone in activating the receptor for this compound when it is present in a recombinant bacteria. […] This hypothesis was validated by the results of an experiment portrayed in FIG. 6. Accordingly, the down-regulation of TS in H630 (human colon cancer) cells treated with acyl-homoserine lactones was tested. Cells growing in RPMI 1640 culture medium, supplemented with 10% dialyzed fetal bovine serum at 37° C. in an atmosphere of 95:5 air:CO2. The compounds with the structures shown were added to the cells and allowed to incubate overnight (approximately 16 hours). The cells were extracted and TS measured by Western blotting as described. The compounds from top to bottom are: (1) 3-hydroxy butanoyl homoserine lactone, (2) butanoyl homoserine lactone; (3) 3-oxo-hexanoyl homoserine lactone; (4) d, 1-hexanoyl homoserine lactone, and (5) 1-homoserine lactone. Tubulin is shown as a loading standard.

[2] = system: thymidylate synthase (TS); test: Luciferase assay in stably transfected H630-C6 cells (pG3E1-2TBE-Neo); type: cell-based, human
Experimental: FIGS. 3a-3j. RLU production in H630-C6 cells in response to TS inhibitors. H630-C6 cells were evaluated for luciferase activity in response to treatment with the indicated compounds. The cells were exposed to the compounds at the indicated concentrations for 18 hr and luciferase assays were then performed according to the manufacturer's instructions. The mean values of triplicates or quadruplicates are shown along with the standard derivations.
This example describes the stable transfection of cells with the DNA construct of the present invention. To facilitate selection of stable transformants, we added a neomycin-resistance gene to the pG3E1-2TBE (FIG. 1) to generate a new plasmid termed pG3E1-2TBE-Neo as follows. For stable transfection, pG3E1-2TBE-Neo was linearized at the ampicillin resistance gene with Ase I and was introduced into H630 cells as described above. At 24 hrs post-transfection, the cells were exposed to 400 μg/ml of G418 for two weeks. Individual clones were picked at that time and screened for their ability to induce luciferase in response to treatment with 5-FU, a known TS inhibitor. Following selection with G418 and evaluation for changes in luciferase activity after exposure of the cells to 5-FU, the cloned subline H630/pG3E1-2TBE-Neo-L1-2-C6 (H630-C6) was chosen for further study.
The stably transfected H630-C6 cell line was maintained in RPMI 1640 plus 10% dialyzed FBS and 400 μg/ml of geneticin (G418). For luciferase assays, 2×10^4 cells were seeded in each well of a 24-well plate in RPMI 1640 medium plus 10% FBS without G418 and were allowed to attach at least six hr, followed by drug exposure overnight (approximately 18 hr). The cells were then washed with PBS (137 mM NaCl, 2.7 mM KCl, 4.3 mM Na2HPO4, 1.4 mM KH2PO4, pH 7.4), lysed with Passive Lysis Buffer (Promega, Madison) and assayed for luciferase activity using the Luciferase Assay System (Promega, Madison, Wis.) according to the manufacturer's instructions. Relative light units (RLU) were measured with a Lumat LB 9501 luminometer (EG & G Berthold, Wildbad, Germany).
To test H630-C6 as a tool to identify TS modulators three different classes of compounds, i.e., specific or predominantly specific TS inhibitors, agents that inhibit folate pathways or inhibit TS as well as having other targets, and agents that act through TS unrelated sites of action were evaluated for their ability to induce changes in luciferase activity.

[3] = system: thymidylate synthase (TS); test: Multiwell luciferase assay in RKO colon tumor cell lines containing pG3E1-2TBE-Neo; conditions: for % C (effect relative to control without 5-FU), RKO clone 1 / % C (effect relative to control without 5-FU), RKO clone 4 / % C (effect relative to control without 5-FU), RKO clone 7 / RLU RKO clone 1 / RLU RKO clone 4 / RLU RKO clone 7: approximately 18 hr
[4] = system: thymidylate synthase (TS); test: Evaluation of TS expression by Western blotting in H630-C6 cells; type: cell-based, human; conditions: H630-C6 cells, 18 hr treatment
Experimental: FIGS. 4a and 4b. Evaluation of TS expression by Western blotting. […] The cells were harvested for Western blots.
This example describes the relationship between TS levels and luciferase production by various known TS inhibitors. Western blotting was performed as previously described (Dolnick and Black, 1996). Briefly, H630-C6 cells were washed with PBS and extracted with RIPA buffer. 10 μg of total protein was resolved by electrophoresis in a 10% SDS-PAGE and was blotted onto a PVDF membrane (Immobilon-P, Millipore, Bedford, Mass.). The membrane was hybridized with rabbit polyclonal antibody against TS (a gift from Dr. Edward Chu, VA Cancer Center, Yale University, West Haven, Conn.) diluted in SuperBlock Blocking Buffer (Pierce, Rockford, Ill.) plus 0.25% Tween 20 for one hour and hybridized with HRP-linked anti-rabbit secondary antibody (Jackson Laboratories) for an additional one hour. The membrane was detected with SuperSignal West Dura Extended Duration Substrate (Pierce, Rockford, Ill.) and was visualized by exposing the blot to Kodak XAR-5 film. […] The resulting signal was detected as described above.
The induction of luciferase activity depends upon the ability to reduce the amount of endogenous TS bound to the TBEs in the recombinant luciferase transcripts. Dissociation of TS from the luciferase reporter mRNA is expected to be accompanied by the removal of TS from TBEs located in other mRNAs as well, such as endogenous TS mRNA. Therefore, an increase in TS is expected to accompany the increase in luciferase. To verify whether a translational mechanism is involved we evaluated the levels of TS from cells treated with the compounds described above by Western blotting.

[5] = system: thymidylate synthase (TS); test: Luciferase assay in H630 cells transiently transfected with pG3E1-2TBE; type: cell-based, human; conditions: 5-FU 10 μM for 24 hr; H630 cells transfected with pG3E1-2TBE
Experimental: FIGS. 2a-2c. Activity of the EGR-I promoter and TBEs in pGL3-basic plasmid. FIG. 2a—the EGR-I promoter was added upstream of the luciferase reporter gene of pGL3-basic plasmid as described in Example 1. The resultant construct pG3E1 was transfected into H630 cells and the luciferase assay was performed 24 hr later. Control: mock transfection; pG3E1: 5 μg of pG3E1 plasmid DNA per 2×10^6 cells was used for transfection. RLU: relative light units. In FIGS. 2b and 2c, TS-binding elements were synthesized and added into pG3E1. The pG3E1-2TBE (5 μg) was transfected into six replicate aliquots of H630 cells (2×10^6) and plated separately. After 24 hr, three of transfected samples were treated with 5-FU (10 μM) for an additional 24 hr (FIG. 2c), the cells were then processed for the luciferase assay according to the manufacturer's instructions. Control: mock transfection; pG3E1: transfected with pG3E1; pG3E1+T: transfected with pG3E1-2TBE only (FIG. 2b). P+T+FU: transfected with pG3E1-2TBE and 24 hr following transfection treated with 5-FU (FIG. 2c). Data are the average of triplicate experiments±S.D.
This example describes the transient transfection of cells with the construct of the present invention. […]

CCCCCC(=O)NC1CCOC1=O (single isomer, unassigned) [d-enantiomer]
activity of the enantiomers, concluded from the comparison with the racemic mixture [1]: inactive

Cc1nc2ccc(CN(C)c3ccc(C(=O)N[C@@H](CCC(=O)O)C(=O)O)s3)cc2c(=O)[nH]1 [ZD1694, Raltitrexed]
elevation of luciferase activity ([2]; 100 μM, H630-C6 cells, 18 hr): approximately two-fold | change in luciferase activity (RLU), in words ([2]; H630-C6 cells, 18 hr exposure): increases in luciferase that were comparable

O=c1[nH]cc(F)c(=O)[nH]1 [5-FU, 5-Fluorouracil]
lowest concentration at which changes in RLU can be detected ([3]; RKO clones, Table 1): 0.1 µM | % C (effect relative to control without 5-FU), RKO clone 1 ([3]; [5-FU] 0.1 μM): 117% | % C (effect relative to control without 5-FU), RKO clone 4 ([3]; [5-FU] 0.1 μM): 121% | % C (effect relative to control without 5-FU), RKO clone 7 ([3]; [5-FU] 0.1 μM): 120% | RLU RKO clone 1 ([3]; [5-FU] 0.1 μM): 1137 RLU | RLU RKO clone 4 ([3]; [5-FU] 0.1 μM): 1078 RLU | RLU RKO clone 7 ([3]; [5-FU] 0.1 μM): 799 RLU | % C (effect relative to control without 5-FU), RKO clone 1 ([3]; [5-FU] 0.5 μM): 135% | % C (effect relative to control without 5-FU), RKO clone 4 ([3]; [5-FU] 0.5 μM): 112% | % C (effect relative to control without 5-FU), RKO clone 7 ([3]; [5-FU] 0.5 μM): 157% | RLU RKO clone 1 ([3]; [5-FU] 0.5 μM): 1314 RLU | RLU RKO clone 4 ([3]; [5-FU] 0.5 μM): 999 RLU | RLU RKO clone 7 ([3]; [5-FU] 0.5 μM): 1043 RLU | % C (effect relative to control without 5-FU), RKO clone 1 ([3]; [5-FU] 2.0 μM): 140% | % C (effect relative to control without 5-FU), RKO clone 4 ([3]; [5-FU] 2.0 μM): 137% | % C (effect relative to control without 5-FU), RKO clone 7 ([3]; [5-FU] 2.0 μM): 168% | RLU RKO clone 1 ([3]; [5-FU] 2.0 μM): 1356 RLU | RLU RKO clone 4 ([3]; [5-FU] 2.0 μM): 1214 RLU | RLU RKO clone 7 ([3]; [5-FU] 2.0 μM): 1119 RLU | % C (effect relative to control without 5-FU), RKO clone 1 ([3]; [5-FU] 10 μM): 179% | % C (effect relative to control without 5-FU), RKO clone 4 ([3]; [5-FU] 10 μM): 172% | % C (effect relative to control without 5-FU), RKO clone 7 ([3]; [5-FU] 10 μM): 243% | RLU RKO clone 1 ([3]; [5-FU] 10 μM): 1738 RLU | RLU RKO clone 4 ([3]; [5-FU] 10 μM): 1527 RLU | RLU RKO clone 7 ([3]; [5-FU] 10 μM): 1614 RLU | % C (effect relative to control without 5-FU), RKO clone 1 ([3]; [5-FU] 50 μM): 148% | % C (effect relative to control without 5-FU), RKO clone 4 ([3]; [5-FU] 50 μM): 175% | % C (effect relative to control without 5-FU), RKO clone 7 ([3]; [5-FU] 50 μM): 156% | RLU RKO clone 1 ([3]; [5-FU] 50 μM): 1438 RLU | RLU RKO clone 4 ([3]; [5-FU] 50 μM): 1559 RLU | RLU RKO clone 7 ([3]; [5-FU] 50 μM): 1560 RLU | mobility of TS in SDS-PAGE / Western blot [4]: altered the mobility of TS | concentration at which the increase in RLU output plateaued ([2]; H630-C6 cells, 18 hr exposure): 50 µM | increase in the RLU compared with untreated transfectants [5]: 33±13.8%

CN[C@@H]1[C@@H](O)[C@@H](O[C@@H]2[C@@H](O)[C@H](O[C@H]3O[C@H]([C@@H](C)O)[C@@H](O)[C@H](O)[C@H]3N)[C@@H](N)C[C@H]2N)OC[C@]1(C)O [G418, geneticin]
TS protein level by Western blotting [4]: inactive

CCCCCC(=O)N[C@H]1CCOC1=O [1-hexanoyl compound]
activity in down-regulating TS relative to the racemic mixture (d, 1) [1]: twice as active | activity of the enantiomers, concluded from the comparison with the racemic mixture [1]: active

CN(Cc1cnc2nc(N)nc(N)c2n1)c1ccc(C(=O)N[C@@H](CCC(=O)O)C(=O)O)cc1 [MTX, methotrexate]
TS protein level by Western blotting [4]: elevated TS protein levels | change in luciferase activity (RLU), in words [2]: increases in luciferase that were comparable | elevation of luciferase activity [2]: approximately two-fold

Nc1ncn([C@@H]2O[C@H](CO)[C@@H](O)[C@H]2O)c(=O)n1 [AC, 5-azacytidine]
TS protein level by Western blotting [4]: did not alter TS protein levels | change in luciferase activity (RLU), in words ([2]; H630-C6 cells, 18 hr exposure): no increase

O=c1[nH]c(=O)n([C@@H]2O[C@H](CO)[C@@H](O)[C@H]2O)cc1F [FUrd, 5-fluorouridine]
mobility of TS in SDS-PAGE / Western blot [4]: altered the mobility of TS | concentration at which the increase in RLU output plateaued ([2]; H630-C6 cells, 18 hr exposure): 2.5 µM

O=c1[nH]c(=O)n([C@H]2C[C@H](O)[C@@H](CO)O2)cc1F [FUdR, 5-fluoro-2′-deoxyuridine]
mobility of TS in SDS-PAGE / Western blot [4]: altered the mobility of TS | concentration at which the increase in RLU output plateaued ([2]; H630-C6 cells, 18 hr exposure): 0.005 µM

Nc1nc2c([nH]c(=S)n2[C@@H]2O[C@H](CO)[C@@H](O)[C@H]2O)c(=O)[nH]1 [TG, 8-thioguanosine]
TS protein level by Western blotting [4]: did not alter TS protein levels | change in luciferase activity (RLU), in words ([2]; H630-C6 cells, 18 hr exposure): no increase

O=c1[nH]c(=O)n([C@H]2C[C@H](O)[C@@H](CO)O2)cc1C(F)(F)F [TFT, trifluorothymidine]
concentration at which the increase in RLU output plateaued ([2]; H630-C6 cells, 18 hr exposure): 0.1 µM
